Earlier results in publication PMC3807987 (Pharmacognosy Research, 2013).
Where two headings read alike, the source gives them in different places.

System: CYP2D6

CN[C@H]1CC[C@@H](c2ccc(Cl)c(Cl)c2)c2ccccc21 [Sertraline]
CYP2D6 inhibition strength (dose of 50 mg): mild inhibitor
CYP2D6 inhibition strength (dose of 200 mg): potent inhibitor
